Calls of active or inactive are those of the source.
Assays:
[1] = target: Induced myeloid leukemia cell differentiation protein Mcl-1 (Homo sapiens, UniProt Q07820); format: functional
[2] = target: T1, Low molecular weight phosphotyrosine protein phosphatase (Homo sapiens, UniProt P24666); format: functional; details: read-out: IC50_Mean
T1 sequence (P24666 whole entry): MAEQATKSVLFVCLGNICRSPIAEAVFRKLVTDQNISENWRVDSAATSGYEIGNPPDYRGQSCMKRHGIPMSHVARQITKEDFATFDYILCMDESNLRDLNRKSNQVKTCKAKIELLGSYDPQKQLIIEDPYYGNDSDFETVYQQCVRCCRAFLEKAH

[3] = target: T1, Low molecular weight phosphotyrosine protein phosphatase; format: functional; details: read-out: IC50_Mean; remark: listed apart in the source
[4] = target: T2, Corticotropin-releasing factor receptor 2/Corticotropin-releasing factor-binding protein (Homo sapiens, UniProt P24387+Q13324); test: Dose Response confirmation of uHTS hits for small molecule antagonists of the CRF-binding protein and CRF-R2 receptor complex.; format: functional; details: read-out: IC50_Mean
T2 sequence (Q13324 whole entry): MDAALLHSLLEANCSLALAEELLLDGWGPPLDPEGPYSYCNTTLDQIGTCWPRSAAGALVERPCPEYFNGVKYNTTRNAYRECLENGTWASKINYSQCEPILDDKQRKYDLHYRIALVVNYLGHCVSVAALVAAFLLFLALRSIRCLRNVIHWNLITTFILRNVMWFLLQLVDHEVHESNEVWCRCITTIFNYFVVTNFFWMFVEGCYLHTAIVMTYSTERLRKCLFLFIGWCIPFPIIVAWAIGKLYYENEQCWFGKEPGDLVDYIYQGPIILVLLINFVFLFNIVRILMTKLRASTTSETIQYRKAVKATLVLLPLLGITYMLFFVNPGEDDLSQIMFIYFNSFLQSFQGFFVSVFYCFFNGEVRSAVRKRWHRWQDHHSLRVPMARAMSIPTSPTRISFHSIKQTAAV
T2 sequence (P24387 whole entry): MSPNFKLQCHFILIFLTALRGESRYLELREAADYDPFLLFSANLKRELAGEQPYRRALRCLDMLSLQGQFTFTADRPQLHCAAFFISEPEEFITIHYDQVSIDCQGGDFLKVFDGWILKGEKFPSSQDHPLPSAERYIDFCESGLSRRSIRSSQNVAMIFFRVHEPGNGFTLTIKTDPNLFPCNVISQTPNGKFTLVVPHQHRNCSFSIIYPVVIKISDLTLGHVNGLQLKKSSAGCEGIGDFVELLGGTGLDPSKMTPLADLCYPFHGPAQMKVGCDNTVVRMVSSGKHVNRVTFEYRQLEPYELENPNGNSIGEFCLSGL

[5] = blockers of CRF-binding protein–CRF-R2 complex – cell-based, uHTS hits, 384-well, dose response (AID 651639); format: functional, Homo sapiens; details: read-out: IC50_Mean
[6] = target: T2, Corticotropin-releasing factor receptor 2/Corticotropin-releasing factor-binding protein; test: activators of CRF receptor 2 with binding protein – uHTS hits, confirmation (AID 602473); format: functional; details: read-out: EC50_Mean
[7] = target: Long-chain-fatty-acid--AMP ligase FadD28 (Mycobacterium tuberculosis, UniProt P9WQ59); test: Fluorescence polarization aasay to screen for inhibitors that compete for the binding of FadD28 to a bisubstrate Measured in Biochemical System Using Plate Reader - 2147-01_Inhibitor_Dose_CherryPick_Activity.; format: functional, Mycobacterium tuberculosis H37Rv
[8] = blockers of bursicon-stimulated LGR2 cAMP reporter – cell-based, HEK293, CRE-luciferase reporter, cherry pick, set 2, dose response (AID 743343); format: functional;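 also: transfected cells were stimulated with diluted bursicon conditioned medium after compound addition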
[9] = viability loss in HEK293 cells – cell-based, plate reader, cherry-picked samples, cytotoxicity control, dose response (AID 743446); format: functional
[10] = A549 cell cytotoxicity, dose response, cytotoxicity control, plate reader, cherry-pick, antagonist series (AID 743412); format: functional, cell-based
[11] = toxicity toward HepG2 liver cells – cell-based, plate reader, cherry-pick, antagonist series, cytotoxicity control, dose response (AID 743416); format: functional
[12] = target: Photoreceptor-specific nuclear receptor (Homo sapiens, UniProt Q9Y5X4); format: functional, cell-based;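 also: CHO-S cells with Gal4-NCOR and VP16-NR2E3 two-hybrid luciferase reporter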
[13] = CTGF mRNA reduction in DLD1 cells – cell-based, DLD1 colon cancer, RT-qPCR, cherry-pick, dose response (AID 1053122); format: functional; details: Cancer cell lines
[14] = Dd2 parasite growth inhibition in erythrocytes – SYBR Green, dry powder samples, set 9, dose response (AID 1159568); format: functional, cell-based
Paired box protein Pax-8 = Paired box protein Pax-8 (Homo sapiens, UniProt Q06710); test: PAX8 transcriptional activity inhibition in RMG-I – RMG-I cells, luciferase, cherry-pick, dose response (AID 687027); format: functional, cell-based;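 also: luciferase reporter driven by Pax8 target thyroperoxidase promoter measured by SteadyGlo luminescence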
[15] = IGROV1 cell killing – plate reader, dry powder samples, PAX8 inhibitor project, dose response (AID 743043); format: functional, cell-based; details: IGROV-1
cells = format: functional, cell-based
Protein skinhead-1 = target: T3, Protein skinhead-1 (Caenorhabditis elegans, UniProt P34707); format: functional
T3 sequence (P34707 whole entry): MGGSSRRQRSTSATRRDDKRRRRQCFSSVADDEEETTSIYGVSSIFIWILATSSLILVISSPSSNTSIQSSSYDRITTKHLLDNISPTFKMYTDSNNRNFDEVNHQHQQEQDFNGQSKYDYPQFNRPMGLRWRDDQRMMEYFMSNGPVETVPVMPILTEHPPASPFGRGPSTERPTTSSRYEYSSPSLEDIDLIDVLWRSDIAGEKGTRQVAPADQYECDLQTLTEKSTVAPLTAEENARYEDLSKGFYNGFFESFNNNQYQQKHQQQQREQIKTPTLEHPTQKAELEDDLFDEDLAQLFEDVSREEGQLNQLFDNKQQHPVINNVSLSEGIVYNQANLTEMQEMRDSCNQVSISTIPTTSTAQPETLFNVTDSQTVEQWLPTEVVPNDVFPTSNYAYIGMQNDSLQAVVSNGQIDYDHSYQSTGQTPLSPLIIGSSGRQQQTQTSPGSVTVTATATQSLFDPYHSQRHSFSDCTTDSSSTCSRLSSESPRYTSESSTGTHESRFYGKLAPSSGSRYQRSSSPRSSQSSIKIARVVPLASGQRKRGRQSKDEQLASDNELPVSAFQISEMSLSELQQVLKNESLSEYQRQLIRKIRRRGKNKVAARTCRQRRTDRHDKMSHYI

[16] = target: T4, Nuclear receptor subfamily 0 group B member 1 (Homo sapiens, UniProt P51843); format: functional, cell-based;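 also: HEK293T cells transfected with SF-1 and DAX-1 plus StAR promoter luciferase reporter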
T4 sequence (P51843 whole entry): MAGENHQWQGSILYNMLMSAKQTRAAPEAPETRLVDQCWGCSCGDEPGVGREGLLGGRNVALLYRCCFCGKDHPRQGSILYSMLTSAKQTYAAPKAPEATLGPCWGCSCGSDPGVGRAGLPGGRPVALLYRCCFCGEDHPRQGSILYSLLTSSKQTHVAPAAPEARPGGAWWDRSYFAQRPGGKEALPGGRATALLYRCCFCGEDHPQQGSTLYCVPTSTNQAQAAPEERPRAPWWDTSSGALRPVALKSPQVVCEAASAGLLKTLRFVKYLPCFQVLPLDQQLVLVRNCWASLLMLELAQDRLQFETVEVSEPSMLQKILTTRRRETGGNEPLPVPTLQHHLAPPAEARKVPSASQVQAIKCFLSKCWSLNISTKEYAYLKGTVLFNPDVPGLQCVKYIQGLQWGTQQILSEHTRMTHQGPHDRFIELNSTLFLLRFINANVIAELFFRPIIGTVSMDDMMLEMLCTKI

Photoreceptor-specific nuclear receptor, sequence (Q9Y5X4 whole entry, the tested form may be a part): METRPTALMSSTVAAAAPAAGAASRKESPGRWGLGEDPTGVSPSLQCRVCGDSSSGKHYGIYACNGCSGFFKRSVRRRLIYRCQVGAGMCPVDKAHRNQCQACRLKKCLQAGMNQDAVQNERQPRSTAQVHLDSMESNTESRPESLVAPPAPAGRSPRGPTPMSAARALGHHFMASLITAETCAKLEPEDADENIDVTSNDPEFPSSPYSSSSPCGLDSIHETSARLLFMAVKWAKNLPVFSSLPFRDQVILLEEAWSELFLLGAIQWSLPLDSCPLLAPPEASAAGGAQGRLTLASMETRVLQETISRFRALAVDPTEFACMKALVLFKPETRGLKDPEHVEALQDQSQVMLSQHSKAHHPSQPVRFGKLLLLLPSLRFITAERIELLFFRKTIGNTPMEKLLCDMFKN
Long-chain-fatty-acid--AMP ligase FadD28, sequence (P9WQ59 whole entry): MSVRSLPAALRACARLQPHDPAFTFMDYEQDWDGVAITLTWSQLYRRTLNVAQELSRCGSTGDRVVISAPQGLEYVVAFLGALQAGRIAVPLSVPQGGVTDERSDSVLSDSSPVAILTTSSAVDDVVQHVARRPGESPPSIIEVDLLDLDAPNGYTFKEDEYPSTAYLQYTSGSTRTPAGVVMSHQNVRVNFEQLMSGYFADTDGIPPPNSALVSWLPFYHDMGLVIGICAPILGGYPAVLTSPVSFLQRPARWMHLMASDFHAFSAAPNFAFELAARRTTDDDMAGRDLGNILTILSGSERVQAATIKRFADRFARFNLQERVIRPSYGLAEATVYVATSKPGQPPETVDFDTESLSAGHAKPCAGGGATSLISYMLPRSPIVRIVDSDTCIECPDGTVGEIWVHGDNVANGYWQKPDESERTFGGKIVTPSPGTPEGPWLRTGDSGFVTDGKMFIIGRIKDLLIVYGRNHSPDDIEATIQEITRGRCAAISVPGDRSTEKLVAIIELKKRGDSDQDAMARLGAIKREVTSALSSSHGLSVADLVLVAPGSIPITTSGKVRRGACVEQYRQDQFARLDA
Induced myeloid leukemia cell differentiation protein Mcl-1, sequence (Q07820 whole entry): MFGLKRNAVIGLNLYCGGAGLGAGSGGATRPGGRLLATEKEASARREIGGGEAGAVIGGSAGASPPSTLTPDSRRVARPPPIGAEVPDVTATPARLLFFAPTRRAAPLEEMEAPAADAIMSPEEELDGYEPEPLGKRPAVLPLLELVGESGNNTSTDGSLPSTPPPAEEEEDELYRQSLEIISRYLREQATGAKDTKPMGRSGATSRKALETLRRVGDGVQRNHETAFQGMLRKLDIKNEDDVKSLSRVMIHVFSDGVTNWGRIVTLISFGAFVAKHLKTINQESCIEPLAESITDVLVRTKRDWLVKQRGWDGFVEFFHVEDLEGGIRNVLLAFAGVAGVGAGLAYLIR
Paired box protein Pax-8, sequence (Q06710 whole entry): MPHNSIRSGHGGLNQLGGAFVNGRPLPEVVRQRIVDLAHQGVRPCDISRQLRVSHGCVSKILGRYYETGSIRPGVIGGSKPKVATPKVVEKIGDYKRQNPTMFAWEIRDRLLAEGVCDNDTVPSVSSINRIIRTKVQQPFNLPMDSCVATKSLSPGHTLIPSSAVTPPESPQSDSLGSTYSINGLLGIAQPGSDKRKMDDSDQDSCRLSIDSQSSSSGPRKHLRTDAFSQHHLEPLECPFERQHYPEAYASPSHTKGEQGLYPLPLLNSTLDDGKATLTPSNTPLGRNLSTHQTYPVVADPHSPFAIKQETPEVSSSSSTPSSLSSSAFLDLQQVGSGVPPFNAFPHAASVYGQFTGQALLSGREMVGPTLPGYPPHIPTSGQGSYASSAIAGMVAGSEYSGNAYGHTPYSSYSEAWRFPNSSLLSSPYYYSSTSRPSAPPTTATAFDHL

In the case of `Cc1ccc(NC2=NC(=O)S/C2=C\c2ccco2)cc1`, the IC50 [1] is reported as 7.28 µM (active), the IC50 [2] is reported as 23.9 µM (inactive) and the IC50 [3] is reported as > 80 µM (inactive).
With `Cc1cc(C(=O)CN2C(=O)NC(C)(CC(C)C)C2=O)c(C)n1-c1ccc2c(c1)OCO2` (stereo not drawn) the IC50 [4] was 12.8 µM (active), the IC50 [5] was 2.36 µM (active) and the EC50 [6] was > 53 µM (inactive).
In the case of `CCOC(=O)c1ccc(NC(=O)Nc2ccc3c(c2)OCCO3)cc1`, the AC50 [7] is reported as 59.3 µM (active).
In the case of `CCOCCCn1c(SCc2nc3ccccc3s2)nc2ccccc2c1=O`, the AC50 [8] is reported as 34.6 µM (active), the EC50 [6] is reported as > 53 µM (inactive) and the AC50 [9] is reported as 5.44 µM (active). The AC50 [10] was 29.8 µM (active) and the AC50 [11] was > 52 µM (inactive).
In the case of `OC[C@@H]1CN(Cc2ccc(-c3ccccc3)cc2)C[C@H](n2cnc3c(Nc4ccccc4)ncnc32)O1`, the IC50 [12] is reported as 7.72 µM (active).
In the case of `C[C@H]1CN([C@@H](C)CO)C(=O)c2cc(C#Cc3ccccc3)cnc2O[C@H]1CN(C)C(=O)c1ccccc1`, the AC50 [13] is reported as 17.8 µM (active) and the AC50 [14] is reported as 1.99 µM (active).
In the case of `Cc1ccc([C@H]2C(C(=O)O)=CC[C@@H](c3ccc(C)cc3)N2S(=O)(=O)c2ccc(C)cc2)cc1`, the IC50 [4] is reported as 34.5 µM (active), the IC50 [5] is reported as > 20 µM (inactive) and the EC50 [6] is reported as 50.2 µM (active).
In the case of `O=C(C[C@@H]1CC[C@@H]2[C@H](COC[C@H](O)CN2Cc2ccc3c(c2)OCO3)O1)Nc1ccc(-c2ccccc2)cc1`, the AC50 (Paired box protein Pax-8) is reported as 9.11 µM (active) and the AC50 [15] is reported as 41.8 µM (active).
In the case of `Clc1cccc(-c2nc3ccc(Br)cn3c2Cc2ccccc2)c1`, the IC50 (cells) is reported as > 67.5 µM (inactive), the IC50 (Protein skinhead-1) is reported as > 100 µM (inactive) and the IC50 [16] is reported as > 67.5 µM (inactive).
